Data as given in article PMC5116089, “Sulfheme formation during homocysteine S-oxygenation by catalase in cancers and neurodegenerative diseases” (Nature Communications, 2016).

Molecular target: T1, Bovine liver catalase (Bos taurus, UniProt P00432)
T1 construct: Bovine liver catalase was also purchased from Sigma-Aldrich; purchased Sigma-Aldrich; host or cells: bovine liver
T1 sequence (P00432 2-527 limits assumed): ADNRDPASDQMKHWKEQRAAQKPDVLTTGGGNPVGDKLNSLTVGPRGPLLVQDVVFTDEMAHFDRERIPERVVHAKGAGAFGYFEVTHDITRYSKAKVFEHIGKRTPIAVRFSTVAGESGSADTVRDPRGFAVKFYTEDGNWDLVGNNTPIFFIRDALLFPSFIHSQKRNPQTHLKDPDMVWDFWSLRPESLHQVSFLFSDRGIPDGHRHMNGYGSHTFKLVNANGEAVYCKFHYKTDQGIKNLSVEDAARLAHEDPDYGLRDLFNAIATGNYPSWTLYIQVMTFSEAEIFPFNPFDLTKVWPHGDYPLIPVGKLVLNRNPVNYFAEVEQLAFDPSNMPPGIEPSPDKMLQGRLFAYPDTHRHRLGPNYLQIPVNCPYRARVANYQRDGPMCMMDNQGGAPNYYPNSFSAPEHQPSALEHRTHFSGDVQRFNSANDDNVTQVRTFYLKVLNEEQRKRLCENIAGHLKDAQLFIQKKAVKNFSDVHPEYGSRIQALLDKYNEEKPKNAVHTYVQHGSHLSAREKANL
Experiment: Ultraviolet-visible spectral changes and HPLC-MS of extracted heme after reaction of CAT with thiols
Type: biochemical
Procedure: Ultraviolet–visible spectra were recorded on a Cary 300 Scan or an Uvikon 941 spectrophotometer equipped with a temperature equilibrating water bath (±1 °C). Spectral changes over time were recorded when CAT was incubated with L-HCys (0.2 or 2 mM), L-Cys (0.2, 2 or 9 mM) or GSH (1 or 30 mM) at 25 °C in a 1 ml quartz cuvette containing a solution of CAT (2.7–5.9 μM) in 50 mM KPi, pH 7.4±1 mM DTPA. Due to half-site reactivity of biological thiols with CAT, the data were recorded versus a blank containing half the concentrations of CAT used in the experiments, that is, a solution of 1.35–2.95 μM CAT in 50 mM KPi at pH 7.4±1 mM DTPA. Reactions were initiated by addition of the thiol-containing compounds. Comparative kinetic studies were performed by incubating CAT ([…] in the experiment, 1.35–1.5 μM in the blank) with 2 mM L-HCys in 50 mM KPi, pH 7.4, 1 mM DTPA with or without […], 5,5-dimethyl-1,3-cyclohexanedione (dimedone, 4 mM), BCN (0.1 mM) or SOD, 40 U). All the experiments were performed at least in duplicate.
HPLC–MS or –HRMS spectra of the prosthetic heme-iron group were recorded on a Thermo-Finnigan Surveyor or a Thermos Fisher Accela equipped with an XTerra MS C18 3.5 μm (2.1 × 50 mm) and a pre-guard column coupled to an ESI LCQ Advantage or an Exactive orbitrap spectrometer, respectively. The prosthetic heme group was extracted on ice by incubating a solution of CAT (5–8 μM) with 1.65 volume of 50 mM Gly-HCl pH 2.0 and 2.65 vol of butan-2-one kept a −20 °C. After vigorous mixing and a short centrifugation step (13,000 r.p.m., 4 °C, 30 s), the upper organic phase was quickly removed and mixed with a solution of 2 M imidazole (10% v/v) to stabilize the extracted cofactor and permit analysis. […] Control experiments (CAT, thiol-compounds and additives alone as well CAT and additives or thiol-compounds and additives) were performed in each instance and analysed in parallel.

## N[C@@H](CS)C(=O)O [Cys, cysteine]
Physiological concentration of Cys (200 μM) in the presence of iron, no DTPA
  heme-iron species formed from CAT: only leads to the reversible formation of compound II

## N[C@@H](CCC(=O)N[C@@H](CS)C(=O)NCC(=O)O)C(=O)O [GSH, glutathione]
GSH (30 mM)
  heme-iron species formed from CAT: compound II formation was only observed

## NC(CCS)C(=O)O (stereo not drawn) [HCys, homocysteine]
2 mM HCys, 1 mM DTPA, pH 7.4, 25 °C
  heme-iron species formed from CAT: induces the production of a sulfheme species
